Values of other authors, collected in US9738932B2, “Biomarkers for cardiovascular side-effects induced by cox-2 inhibitory compounds” (FIRALIS SAS, priority 2005, dated 2017).

Tested on: CXCL10 synthesis
Details: by preventing PGE2 production and PKA activation; cited from earlier work

CS(=O)(=O)Nc1ccc([N+](=O)[O-])cc1OC1CCCCC1 [NS398]
effect on CXCL10 synthesis upon INFγ stimulation: potentiates
